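Values below derive from 48-hour exposures of cells grown in 96-well plates, with endpoints linearly interpolated between the two concentrations bracketing the appropriate inhibition level. GI50: concentration for 50% inhibition of growth. TGI is the concentration that stops growth completely.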
Assays:
Assay in all cases: growth of human tumour cells (NCI), 48 h
[1] = tested on: 786-0 renal
[2] = tested on: A498 renal
[3] = tested on: DMS 114 small cell lung
[4] = tested on: HCC-2998 colon
[5] = tested on: LOX IMVI melanoma
[6] = tested on: LXFL 529 NSCLC
[7] = tested on: RPMI-8226 leukemia
[8] = tested on: RXF 393 renal
[9] = tested on: SNB-19 CNS
[10] = tested on: UACC-62 melanoma

Compound | TGI [1] [µM] | TGI [2] [µM] | TGI [3] [µM] | TGI [4] [µM] | TGI [5] [µM] | TGI [6] [µM] | TGI [7] [µM] | TGI [8] [µM] | TGI [9] [µM] | TGI [10] [µM] | GI50 [1] [µM] | GI50 [2] [µM] | GI50 [3] [µM] | GI50 [4] [µM] | GI50 [5] [µM] | GI50 [6] [µM] | GI50 [7] [µM] | GI50 [8] [µM] | GI50 [9] [µM] | GI50 [10] [µM]
O=C(CC(=O)C1CCOC1=O)C(=O)Nc1cccc(Cl)c1 (stereo not given) | > 100 | > 100 | > 100 | > 100 | > 100 | > 100 | > 100 | > 100 | > 100 | > 100 | – | – | – | – | – | – | – | – | – | –
Nc1c(-c2ccccc2-c2c(N)[n+]([O-])c3ccccc3[n+]2[O-])[n+]([O-])c2ccccc2[n+]1[O-] | > 100 | 71.4 | 27.2 | > 100 | > 100 | > 100 | 63.4 | > 100 | > 100 | 26.5 | – | – | – | – | – | – | – | – | – | –
N#CC(=Nc1ccccc1N(C(=O)c1ccccc1)C(=O)c1ccccc1)c1ccccc1 | > 100 | > 100 | > 48.8 | > 100 | > 100 | > 100 | > 81.4 | > 39.3 | > 54.9 | > 100 | – | – | – | – | – | – | – | – | – | –
CCN1c2ccccc2-c2c3c1cc(C)cc3c1ccccc1[n+]2CC | 4.22 | 13.9 | 5.84 | 2.11 | 1.89 | 1.86 | 2.92 | 9.51 | 3.16 | 2.23 | – | – | – | – | – | – | – | – | – | –
COc1cccc(/C=N/[N-]C(=O)c2ccncc2)c1[O-].COc1cccc(/C=N/[N-]C(=O)c2ccncc2)c1[O-].[O]=[U](=[O])([OH2+])[OH2+] | 48.6 | 47.7 | 12.5 | > 100 | > 100 | > 100 | 48 | 25.3 | > 100 | 19.4 | 4.37 | 21.5 | 3.3 | 12.8 | 4.94 | > 33.7 | 4.4 | 6.11 | 9.44 | 3.66

— PubChem BioAssay (NCI)
